Test results reported in patent US20230085307A1, “PYRIDAZINONE COMPOUND AND HERBICIDE” (NISSAN CHEMICAL CORPORATION, priority 2019, published 2023).

How the values were obtained:
chickweed [1] = assay: Test Example 5: herbicidal effect by foliage application, plastic box (Table 20, symbol P); format: in vivo, common chickweed (Stellaria media); conditions: foliage application, AAH 320 g/ha, three weeks after application
Outline: (§1)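 Post-emergence foliar test in sterilized diluvial soil. Compound applied as water-diluted emulsion at a predetermined rate to 14-day-old plants; evaluation at three weeks.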

wild oat [2] = assay: Test Example 4: herbicidal effect by soil treatment (Table 19, symbol I); format: in vivo, wild oat (Avena fatua); conditions: amount of applied herbicide 320 g/ha
Outline: (§2)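 Scoring uses the grading scale of an earlier test, three weeks post-application. Treatment consists of spraying a diluted emulsion formulation across the surface of sterilized diluvial soil in which seeds are buried near 1.5 cm deep; boxes are kept in a greenhouse between 25° C. and 30° C.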

rice flat sedge = assay: Test Example 3: herbicidal effect by foliage application, Wagner pot (Table 18, symbol E); format: in vivo, rice flat sedge (Cyperus iria); conditions: 320 g/ha
Outline: (§3)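 Plants were sown in alluvial soil held under 0.1–0.5 cm standing water and grown 14 days in a greenhouse at 25–30 °C. An emulsifiable formulation, water-diluted to the set dose, was then sprayed onto the foliage, and effects were scored three weeks later using previously defined criteria.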

blackgrass [3] = assay: Test Example 5: herbicidal effect by foliage application, plastic box (Table 20, symbol J); format: in vivo, blackgrass (Alopecurus myosuroides); conditions: foliage application, AAH 320 g/ha, three weeks after application
Outline: as §1

Italian ryegrass [4] = assay: Test Example 4: herbicidal effect by soil treatment (Table 19, symbol K); format: in vivo, Italian ryegrass (Lolium multiflorum); conditions: amount of applied herbicide 320 g/ha
Outline: as §2

persian speedwell [5] = assay: Test Example 4: herbicidal effect by soil treatment (Table 19, symbol R); format: in vivo, Persian speedwell (Veronica persica); conditions: amount of applied herbicide 320 g/ha
Outline: as §2

southern crabgrass [6] = assay: Test Example 4: herbicidal effect by soil treatment (Table 19, symbol F); format: in vivo, southern crabgrass (Digitaria ciliaris); conditions: amount of applied herbicide 320 g/ha
Outline: as §2

false cleavers [7] = assay: Test Example 4: herbicidal effect by soil treatment (Table 19, symbol Q); format: in vivo, false cleavers (Galium spurium); conditions: amount of applied herbicide 320 g/ha
Outline: as §2

blackgrass [8] = assay: Test Example 4: herbicidal effect by soil treatment (Table 19, symbol J); format: in vivo, blackgrass (Alopecurus myosuroides); conditions: amount of applied herbicide 320 g/ha
Outline: as §2

Chinese sprangletop = assay: Test Example 3: herbicidal effect by foliage application, Wagner pot (Table 18, symbol D); format: in vivo, chinese sprangletop (Leptochloa chinensis); conditions: 320 g/ha
Outline: as §3

Italian ryegrass [9] = assay: Test Example 5: herbicidal effect by foliage application, plastic box (Table 20, symbol K); format: in vivo, Italian ryegrass (Lolium multiflorum); conditions: foliage application, AAH 320 g/ha, three weeks after application
Outline: as §1

lambsquarters [10] = assay: Test Example 5: herbicidal effect by foliage application, plastic box (Table 20, symbol O); format: in vivo, lambsquarters (Chenopodium album); conditions: foliage application, AAH 320 g/ha, three weeks after application
Outline: as §1

windgrass [11] = assay: Test Example 5: herbicidal effect by foliage application, plastic box (Table 20, symbol L); format: in vivo, windgrass (Apera spica-venti); conditions: foliage application, AAH 320 g/ha, three weeks after application
Outline: as §1

velvetleaf [12] = assay: Test Example 4: herbicidal effect by soil treatment (Table 19, symbol M); format: in vivo, velvetleaf (Abutilon theophrasti); conditions: amount of applied herbicide 320 g/ha
Outline: as §2

lambsquarters [13] = assay: Test Example 4: herbicidal effect by soil treatment (Table 19, symbol O); format: in vivo, lambsquarters (Chenopodium album); conditions: amount of applied herbicide 320 g/ha
Outline: as §2

chickweed [14] = assay: Test Example 4: herbicidal effect by soil treatment (Table 19, symbol P); format: in vivo, common chickweed (Stellaria media); conditions: amount of applied herbicide 320 g/ha
Outline: as §2

barnyard grass [15] = assay: Test Example 4: herbicidal effect by soil treatment (Table 19, symbol H); format: in vivo, barnyard grass (Echinochloa crus-galli); conditions: amount of applied herbicide 320 g/ha
Outline: as §2

windgrass [16] = assay: Test Example 4: herbicidal effect by soil treatment (Table 19, symbol L); format: in vivo, windgrass (Apera spica-venti); conditions: amount of applied herbicide 320 g/ha
Outline: as §2

persian speedwell [17] = assay: Test Example 5: herbicidal effect by foliage application, plastic box (Table 20, symbol R); format: in vivo, Persian speedwell (Veronica persica); conditions: foliage application, AAH 320 g/ha, three weeks after application
Outline: as §1

wild oat [18] = assay: Test Example 5: herbicidal effect by foliage application, plastic box (Table 20, symbol I); format: in vivo, wild oat (Avena fatua); conditions: foliage application, AAH 320 g/ha, three weeks after application
Outline: as §1

southern crabgrass [19] = assay: Test Example 5: herbicidal effect by foliage application, plastic box (Table 20, symbol F); format: in vivo, southern crabgrass (Digitaria ciliaris); conditions: foliage application, AAH 320 g/ha, three weeks after application
Outline: as §1

green foxtail [20] = assay: Test Example 4: herbicidal effect by soil treatment (Table 19, symbol G); format: in vivo, green foxtail (Setaria viridis); conditions: amount of applied herbicide 320 g/ha
Outline: as §2

green foxtail [21] = assay: Test Example 5: herbicidal effect by foliage application, plastic box (Table 20, symbol G); format: in vivo, green foxtail (Setaria viridis); conditions: foliage application, AAH 320 g/ha, three weeks after application
Outline: as §1

velvetleaf [22] = assay: Test Example 5: herbicidal effect by foliage application, plastic box (Table 20, symbol M); format: in vivo, velvetleaf (Abutilon theophrasti); conditions: foliage application, AAH 320 g/ha, three weeks after application
Outline: as §1

barnyard grass [23] = assay: Test Example 5: herbicidal effect by foliage application, plastic box (Table 20, symbol H); format: in vivo, barnyard grass (Echinochloa crus-galli); conditions: foliage application, AAH 320 g/ha, three weeks after application
Outline: as §1

barnyard grass [24] = assay: Test Example 3: herbicidal effect by foliage application, Wagner pot (Table 18, symbol H); format: in vivo, barnyard grass (Echinochloa crus-galli); conditions: 320 g/ha
Outline: as §3

false cleavers [25] = assay: Test Example 5: herbicidal effect by foliage application, plastic box (Table 20, symbol Q); format: in vivo, false cleavers (Galium spurium); conditions: foliage application, AAH 320 g/ha, three weeks after application
Outline: as §1

redroot pigweed = assay: Test Example 4: herbicidal effect by soil treatment (Table 19, symbol N); format: in vivo, redroot pigweed (Amaranthus retroflexus); conditions: amount of applied herbicide 320 g/ha
Outline: as §2

Cc1nn(C)c(=O)c(-c2c(-c3ccc4c(c3)OC(F)(F)O4)sc3ccccc23)c1O [1-099]
P: chickweed, herbicidal effect (chickweed [1]): 5 (Herbicidal rate of 90% or more (almost completely withered)) | herbicidal effect rating, I: wild oat (wild oat [2]): 0 (Herbicidal rate of 5% or less (almost no effect)) | herbicidal effect on E (rice flat sedge), rating 0-5 (rice flat sedge): 5 (Herbicidal rate of 90% or more (almost completely withered)) | J: blackgrass, herbicidal effect (blackgrass [3]): 1 (Herbicidal rate of 5% or more and less than 20%) | herbicidal effect rating, K: Italian ryegrass (Italian ryegrass [4]): 0 (Herbicidal rate of 5% or less (almost no effect)) | herbicidal effect rating, R: persian speedwell (persian speedwell [5]): 5 (Herbicidal rate of 90% or more (almost completely withered)) | herbicidal effect rating, F: southern crabgrass (southern crabgrass [6]): 0 (Herbicidal rate of 5% or less (almost no effect)) | herbicidal effect rating, Q: false cleavers (false cleavers [7]): 2 (Herbicidal rate of 20% or more and less than 40%) | herbicidal effect rating, J: blackgrass (blackgrass [8]): 0 (Herbicidal rate of 5% or less (almost no effect)) | herbicidal effect on D (Chinese sprangletop), rating 0-5 (Chinese sprangletop): 0 (Herbicidal rate of 5% or less (almost no effect)) | K: Italian ryegrass, herbicidal effect (Italian ryegrass [9]): 3 (Herbicidal rate of 40% or more and less than 70%) | O: lambsquarters, herbicidal effect (lambsquarters [10]): 3 (Herbicidal rate of 40% or more and less than 70%) | L: windgrass, herbicidal effect (windgrass [11]): 0 (Herbicidal rate of 5% or less (almost no effect)) | herbicidal effect rating, M: velvetleaf (velvetleaf [12]): 0 (Herbicidal rate of 5% or less (almost no effect)) | herbicidal effect rating, O: lambsquarters (lambsquarters [13]): 0 (Herbicidal rate of 5% or less (almost no effect)) | herbicidal effect rating, P: chickweed (chickweed [14]): 4 (Herbicidal rate of 70% or more and less than 90%) | herbicidal effect rating, H: barnyard grass (barnyard grass [15]): 0 (Herbicidal rate of 5% or less (almost no effect)) | herbicidal effect rating, L: windgrass (windgrass [16]): 0 (Herbicidal rate of 5% or less (almost no effect)) | R: persian speedwell, herbicidal effect (persian speedwell [17]): 5 (Herbicidal rate of 90% or more (almost completely withered)) | I: wild oat, herbicidal effect (wild oat [18]): 0 (Herbicidal rate of 5% or less (almost no effect)) | F: southern crabgrass, herbicidal effect (southern crabgrass [19]): 0 (Herbicidal rate of 5% or less (almost no effect)) | herbicidal effect rating, G: green foxtail (green foxtail [20]): 0 (Herbicidal rate of 5% or less (almost no effect)) | G: green foxtail, herbicidal effect (green foxtail [21]): 0 (Herbicidal rate of 5% or less (almost no effect)) | M: velvetleaf, herbicidal effect (velvetleaf [22]): 5 (Herbicidal rate of 90% or more (almost completely withered)) | H: barnyard grass, herbicidal effect (barnyard grass [23]): 0 (Herbicidal rate of 5% or less (almost no effect)) | herbicidal effect on H (barnyard grass), rating 0-5 (barnyard grass [24]): 0 (Herbicidal rate of 5% or less (almost no effect)) | Q: false cleavers, herbicidal effect (false cleavers [25]): 2 (Herbicidal rate of 20% or more and less than 40%) | herbicidal effect rating, N: redroot pigweed (redroot pigweed): 0 (Herbicidal rate of 5% or less (almost no effect))
